# From patent US5945453A, “Benzoylphenylurea insecticides to control cockroaches” (Dow AgroSciences LLC, priority 1997, dated 1999)
# Tests used:
# Type in all cases: in vivo
# [1] = tested on: Subterranean Termite (Reticulitermes flavipes); assay: Limited exposure (7 days) with mortality determined at 14, 28, 42, and 56 days; conditions: for LT50 (days) for 10000 ppm treatment: limited exposure (7 days); for speed of activity, Compound 1 versus hexaflumuron: limited exposure
# Source text: (§1) Subterranean Termite (Reticulitermes flavipes)
# Limited exposure (7 days) with mortality determined at 14, 28, 42, and 56 days
# [2] = tested on: German cockroach 2nd instars (Blattella germanica); assay: Continuous, low-dose ingestion exposure (treated cornmeal)
# Source text: (§2) German cockroach 2nd instars (Blattella germanica)
# Continuous, low-dose ingestion exposure (treated cornmeal)
# [3] = tested on: German cockroach 2nd instars (Blattella germanica); assay: Limited ingestion exposure (48 hr) to treated cornmeal; conditions: for LC50, high / LC50, low: 48 hr limited exposure; for LC50, high: 'high' column; for LC50, low: 'low' column (also holds the value where only one is printed); for potency versus hexaflumuron: limited exposure
# Source text: as §2
# Limited ingestion exposure (48 hr) to treated cornmeal
# [4] = tested on: Subterranean Termite (Reticulitermes virginicus); assay: Continuous exposure (56 days) to treated paper; conditions: for LT50 (days) for 200 ppm trt / LC50 / speed of action versus hexaflumuron: continuous exposure
# Source text: Subterranean Termite (Reticulitermes virginicus)
# (§3) Continuous exposure (56 days) to treated paper
# [5] = tested on: Red Imported Fire Ant (RIFA) (Solenopsis invicta); assay: Laboratory ant bait study, 3-4 day exposure to bait, brood reduction; conditions: for Time to Achieve 50% Brood Reduction / Time to Achieve 90% Brood Reduction: RIFA, best results achieved with compound
# Protocol: (§4) Laboratory ant bait studies were carried out with Red Imported Fire Ant (RIFA) (Solenopsis invicta) and Pharaoh Ant (Monomorium pharaonis). Chitin synthesis inhibitors, such as the compounds of the invention, control ants by killing the molting larvae and/or pupae and potentially preventing the hatching of eggs. Because adult workers are not affected, control is measured by effects on the brood.
# (§5) The studies involved 3-4 day exposure to bait. These limited exposure studies more accurately represent real world bait availability than continuous exposure.
# [6] = tested on: Pharaoh Ant (Monomorium pharaonis); assay: as above; conditions: 0.1%, best results achieved with compound
# Protocol: as §4, §5
# [7] = tested on: Cat Flea (Ctenocephalides felis); assay: Continuous exposure of larvae to treated media, impact on subsequent adult emergence; conditions: for LC50 / LC90: continuous exposure of larvae, adult emergence
# Source text: Cat Flea (Ctenocephalides felis)
# Continuous exposure of larvae to treated media, impact on subsequent adult emergence
# [8] = tested on: Subterranean Termite (Reticulitermes flavipes); assay: Continuous exposure (56 days) to treated paper; conditions: for performance versus hexaflumuron: Eastern Subterranean termite
# Source text: as §1, §3
# Daphnia = assay: Activity against Daphnia, 48 hr exposure to treated water
# Source text: 48 hr exposure to treated water
# [9] = Southeastern subterranean termite
Compound,LT50 (days) for 10000 ppm treatment [1] [days],"speed of activity, Compound 1 versus hexaflumuron [1]",potency versus hexaflumuron [2],LC50 ([2]; 21 days) [ppm],LC50 ([2]; 42 days) [ppm],"LC50, low ([3]; 21 days)","LC50, low ([3]; 42 days)",potency versus hexaflumuron [3],LT50 (days) for 200 ppm trt [4] [days],LC50 ([4]; 21 days) [ppm],LC50 ([4]; 35 days) [ppm],"speed of action versus hexaflumuron [4, 9]",LC50 [7] [ppm],LC90 [7] [ppm],LT50 (days) for 200 ppm trt [8] [days],LC50 ([8]; 21 days) [ppm],LC50 ([8]; 35 days) [ppm],performance versus hexaflumuron [8],activity against Daphnia versus Compound 1 or hexaflumuron (Daphnia),other results
"O=C(NC(=O)c1c(F)cccc1F)Nc1cc(Cl)c(OC(F)(F)C(F)C(F)(F)F)c(Cl)c1 (stereo not drawn) [Compound 1, N-[3,5-Dichloro-4-(1,1,2,3,3,3-hexafluoropropoxy)phenyl]-N'-(2,6-difluorobenzoyl) urea]",34.5,comparable in speed of activity,far superior to hexaflumuron,14.5,< 0.23,< 1.0 ppm,< 1.0 ppm,far more potent than hexaflumuron,10.2,3.5,< 0.78,faster acting that hexaflumuron,8.6,12.8,32.9,> 200,< 0.78,no performance advantage,,"LC50, high ([3]; 21 days): 52.7 ppm; LC50, high ([3]; 42 days): 30.1 ppm; Time to Achieve 50% Brood Reduction ([5]; 0.1%): 2-3 wks; Time to Achieve 90% Brood Reduction ([5]; 0.1%): 4 wks; potency versus hexaflumuron ([5]; short exposure study with RIFA): significantly more potent than hexaflumuron; Time to Achieve 50% Brood Reduction [6]: 2 wks; Time to Achieve 90% Brood Reduction [6]: 4 wks; activity versus hexaflumuron ([7]; fleas): far more active against fleas than was hexaflumuron"
"CCN(C(=O)Nc1cc(Cl)c(OC(F)(F)C(F)C(F)(F)F)c(Cl)c1)C(=O)c1c(F)cccc1F (stereo not drawn) [Compound 2, N-[3,5-Dichloro-4-(1,1,2,3,3,3-hexafluoropropoxy)phenyl]-N'-(2,6-difluorobenzoyl)-N'-ethyl urea]",,,far superior to hexaflumuron,9.3,5.4,192.0 ppm,,far more potent than hexaflumuron,,,,,329.4,> 1000,34.6,> 200,22.5,no performance advantage,far less active against Daphnia than were Compound 1 or hexaflumuron,
"CCN(C(=O)NC(=O)c1c(F)cccc1F)c1cc(Cl)c(OC(F)(F)C(F)C(F)(F)F)c(Cl)c1 (stereo not drawn) [Compound 3, N-[3,5-Dichloro-4-(1,1,2,3,3,3-hexafluoro-propoxy)phenyl]-N'-(2,6-difluorobenzoyl)-N-ethylurea]",,,far superior to hexaflumuron,1.3,0.78,52.2 ppm,30.9 ppm,far more potent than hexaflumuron,9.7,62.4,< 0.78,faster acting that hexaflumuron,78.0,460.7,,,,no performance advantage,far less active against Daphnia than were Compound 1 or hexaflumuron,"potency versus hexaflumuron ([4]; 21 days of exposure, Southeastern subterranean termite): more potent at 21 days of exposure"
"O=C(NC(=O)c1c(F)cccc1F)Nc1cc(Cl)c(OC(F)(F)C(F)F)c(Cl)c1 [hexaflumuron, reference compound]",32.9,comparable in speed of activity,,> 200,> 200,"> 10,000 ppm","> 10,000 ppm",,16.3,28.8,< 0.78,,65.7,333.5,25.7,> 200,< 0.78,,,Time to Achieve 50% Brood Reduction ([5]; 0.25%): 4 wks; Time to Achieve 90% Brood Reduction ([5]; 0.25%): 10 wks
